In data set [1] the test system is BRD pathogens, M. haemolytica and P. multocida. Nature of the data set: In-vitro MIC model, BRD pathogen screening panel. The data set is classed as cell-based. To be noted: asterisk = at least one BRD bacterial isolate.
The next data set relates to TNF-α. The data set can be described thus: Bovine whole blood assay, LPS-induced TNF-α. The conditions noted are these: LPS 1 μg/mL. The data set is classed as cell-based. Here is the method: (§1) (protected from light) for 30 minutes.
A further data set deals with IL-1β. Nature of the data set: Bovine whole blood assay, IL-1β. The data set is classed as cell-based. The conditions noted are these: drug concentration giving overstimulation of IL-1β over LPS (cellular toxicity signal). Here is the method: as §1
For a further data set, the system named is P. multocida 46572. The data set can be described thus: In vivo mouse lung infection challenge model (murine efficacy model).

Structures are written as SMILES. pIC50: −log10 of the molar value. Marks after values point to notes of the source that are not given here.

What is called pIC50 is −log10 of the IC50, conventionally taken in molar units. The low end stands for a high IC50, the high end for a low IC50.

`CC[C@H]1OC(=O)[C@H](C)[C@@H](O[C@H]2C[C@@](C)(OC)[C@](O)(CNC(C)C)[C@H](C)O2)[C@H](C)[C@@H](O[C@@H]2O[C@H](C)C[C@H]3[C@H]2OC(=Nc2ccc(OC)nc2)N3C)[C@](C)(O)C[C@@H](C)CN[C@H](C)[C@@H](O)[C@]1(C)O` (mixture of isomers) [Example A-26, (E/Z)-(2R,3S,4R,5R,8R,10R,11R,12S,13S,14R)-2-ethyl-3,4,10-trihydroxy-13-(((2R,4R,5S,6S)-5-hydroxy-5-((isopropylamino)methyl)-4-methoxy-4,6-dimethyltetrahydro-2H-pyran-2-yl)oxy)-11-(((3aR,4S,6R,7aS)-2-((6-methoxypyridin-3-yl)imino)-1,6-dimethylhexahydro-2H-pyrano[4,3-d]oxazol-4-yl)oxy)-3,5,8,10,12,14-hexamethyl-1-oxa-6-azacyclopentadecan-15-one]: the “MIC flag on Ex# (Table A)” value in data set [1] was “A-26* (an MIC ≤ 64 μg/mL for at least one BRD bacterial isolate)”.
Still for that read-out and setting: then `CC[C@H]1OC(=O)[C@H](C)[C@@H](O[C@H]2C[C@@](C)(OC)[C@](O)(CNCCCOC)[C@H](C)O2)[C@H](C)[C@@H](O[C@@H]2O[C@H](C)C[C@H]3[C@H]2OC(=Nc2ccc(OC)nc2)N3C)[C@](C)(O)C[C@@H](C)CN[C@H](C)[C@@H](O)[C@]1(C)O` (mixture of isomers) [Example A-27, (E/Z)-(2R,3S,4R,5R,8R,10R,11R,12S,13S,14R)-2-ethyl-3,4,10-trihydroxy-13-(((2R,4R,5S,6S)-5-hydroxy-4-methoxy-5-(((3-methoxypropyl)amino)methyl)-4,6-dimethyltetrahydro-2H-pyran-2-yl)oxy)-11-(((3aR,4S,6R,7aS)-2-((6-methoxypyridin-3-yl)imino)-1,6-dimethylhexahydro-2H-pyrano[4,3-d]oxazol-4-yl)oxy)-3,5,8,10,12,14-hexamethyl-1-oxa-6-azacyclopentadecan-15-one], with “A-27* (an MIC ≤ 64 μg/mL for at least one BRD bacterial isolate)”.
Turning to `CC[C@H]1OC(=O)[C@H](C)[C@@H](O[C@H]2C[C@@](C)(OC)[C@](O)(CN3CCOCC3)[C@H](C)O2)[C@H](C)[C@@H](O[C@@H]2O[C@H](C)C[C@H]3[C@H]2OC(=Nc2ccc(OC)cc2)N3C)[C@](C)(O)C[C@@H](C)CN[C@H](C)[C@@H](O)[C@]1(C)O` (mixture of isomers) [Example B-4, (E/Z)-(2R,3S,4R,5R,8R,10R,11R,12S,13S,14R)-2-ethyl-3,4,10-trihydroxy-13-(((2R,4R,5S,6S)-5-hydroxy-4-methoxy-4,6-dimethyl-5-(morpholinomethyl)tetrahydro-2H-pyran-2-yl)oxy)-11-(((3aR,4S,6R,7aS)-2-((4-methoxyphenyl)imino)-1,6-dimethylhexahydro-2H-pyrano[4,3-d]oxazol-4-yl)oxy)-3,5,8,10,12,14-hexamethyl-1-oxa-6-azacyclopentadecan-15-one], in the data set with TNF-α, the pIC50 was > 5.30. For the same compound, the “IL-Iβ OS of LPS” value with IL-1β was determined as 13 µM. Moreover, the “% Survival” value in the data set with P. multocida 46572 (20 mg/kg subcutaneous, CD-1 mice, intranasal challenge, to Day 10, approximate (~%), harmonized relative to vehicle and M9) is listed as 37%. In the data set on P. multocida 46572 (P. multocida infection in mice), the “clinical efficacy, in words” value is listed as “clinically efficacious”.
For the compound `CC[C@H]1OC(=O)[C@H](C)[C@@H](O[C@H]2C[C@@](C)(OC)[C@@H](O)[C@H](C)O2)[C@H](C)[C@@H](O[C@@H]2O[C@H](C)C[C@H]3[C@H]2OC(=Nc2ccc(F)cc2)N3C)[C@](C)(O)C[C@@H](C)CN[C@H](C)[C@@H](O)[C@]1(C)O` (mixture of isomers) [Example C-1, (E/Z)-(2R,3S,4R,5R,8R,10R,11R,12S,13S,14R)-2-ethyl-11-(((3aR,4S,6R,7aS)-2-((4-fluorophenyl)imino)-1,6-dimethylhexahydro-2H-pyrano[4,3-d]oxazol-4-yl)oxy)-3,4,10-trihydroxy-13-(((2R,4R,5S, 6S)-5-hydroxy-4-methoxy-4,6-dimethyltetrahydro-2H-pyran-2-yl)oxy)-3,5,8,10,12,14-hexamethyl-1-oxa-6-azacyclopentadecan-15-one], in data set [1], the “MIC flag on Ex# (Table C)” value is reported as “C-1* (MIC ≤ 64 μg/mL for at least one BRD bacterial isolate)”.
